Measurements: US5304113A, “Method of eradicating infectious biological contaminants” (The MCW Research Foundation, Inc., priority 1990, dated 1994)
“Also recorded” adds a separate entry of the source.

Key:
[1] = illumination time reduction; settings: equimolar concentrations
From the text: An analog of MC 540 which we have labeled MC 540A (see structural formula below) reduces illumination times about 6-fold when used in equimolar concentrations. [drawing 3]
Merocyanine-mediated photolysis of tumor cells, viruses and protozoa appear to be primarily mediated by singlet oxygen. An additional 2-fold reduction in illumination time can therefore be achieved by performing the photosensitization step in the presence of deuterium oxide (D2 O).

[2] = system: herpes simplex virus type 1 (HSV-1); assay: limiting dilution plaque forming assay on Vero cells (Herpes simplex 1 inactivation); assay type: cell-based, human
From the text: (§1) The amount of virus that could be sedimented by centrifugation was reduced 5-fold after treatment with MC 540 and light. The remaining 80% of the virus were probably lysed. The small fraction that was sedimented was visibly stained by MC 540. It is conceivable that the sedimented virus fraction, although not lysed, had sustained enough photodynamic damages to make it noninfectious. For example, when the virus is Herpes simplex 1 the order of magnitude reduction is as high as 45 times.
(§2) Experiments with human herpes simplex virus type 1 (HSV-1), and human T-cell leukemia virus type I (HTLV-I) produced similar results. […] A limiting dilution plaque forming assay on Vero cells indicated a ≥5 log reduction (limit of detection) of the virus titer after only 10 min. of illumination. The standard illumination protocol calls for 90 min. of illumination. It is thus conceivable that the titer can be reduced by ≥45 log. Infectivity assays for HTLV-I have, unfortunately, not yet been developed. We therefore used reverse transcriptase activity as an indicator of virus destruction. Photosensitized and untreated aliquots of the same virus suspension were pelleted on a sucrose cushion. The pellet of the treated aliquot was about 5 times smaller and visibly red. Its reverse transcriptase content was reduced by more than 80% (Table 1). The balance of the enzyme activity was recovered in the supernatant. More than 80% of the original virus mass was apparently damaged so extensively (virtually "dissolved") that it was no longer pelletable by a two hour spin at 100,000×g. If the photosensitization of enveloped viruses bears any resemblance to the photosensitization of cells, it is reasonable to speculate that the pelletable material was also photodamaged and perhaps no longer infective.

HTLV-I infected cells = assay: inactivation of HTLV-I infected cells; assay type: cell-based; settings: MC 540-mediated photosensitization
Friend virus = Friend virus disease in mice injected with photosensitized preparations; assay type: in vivo, B6D2F1 mice
Protocol: (§3) When cultured F4-6 erythroleukemia cells, spleen or marrow cells from diseased animals, cell-free extracts of cultured cells, spleen cells, or marrow cells, or cell-free supernatants of F-6 cultures were injected into healthy B6D2F1 mice, the spleen weights increased from 70 mg to about 2 g within two weeks. The animals became polycythemic and, eventually, died. […] Normal pluripotent hematopoietic stem cells (as determined by the ability of photosensitized marrow cells to rescue lethally irradiated syngeneic hosts) were spared by the photosensitization treatment.

[3] = Acute systemic toxicity in mice (intravenous); assay type: in vivo, mouse (BAF1)
Protocol: The acute systemic toxicity of MC 540 was determined by injecting groups of 10 BAF1 mice intravenously with graded doses of MC 540. Survival data were plotted on a log probit scale and fitted with a least square regression line to determine LD10 and LD50 (Table 2).

[4] = system: human T-cell leukemia virus type I (HTLV-I) reverse transcriptase; assay: HTLV-I inactivation: pelletable virus and reverse transcriptase activity; assay type: biochemical
From the text: as §1, §2

P. yoelii YM = assay: survival of mice injected with treated P. yoelii-infected blood; assay type: in vivo
Protocol: (§4) Using the rodent malaria species, P. yoelii YM, and P. berghei berghei as model systems, the survival of mice i.v. injected with MC 540-treated and non-treated malarious blood was monitored in vivo. […] All mice receiving untreated malarious blood died rapidly. In a subsequent experiment, serial dilutions of treated (30 minutes of dye/light) or control malarious blood (30% parasitemia) were injected into recipient mice. One hundred percent of the mice receiving 10^4 treated cells survived compared to 0% of the corresponding control group. […] It is conceivable that MC 540 treatment of infected blood enhanced the immune response of the recipient mice.

[5] = system: Friend erythroleukemia virus complex; assay: Friend virus titer / inactivation by MC 540-mediated photosensitization; assay type: cell-based
Protocol: The ability of MC 540 to react with enveloped (i.e. lipid-containing) viruses was tested with the Friend erythroleukemia virus complex, the human T cell leukemia virus, HTLV-I and Herpes simplex 1. Friend virus was obtained from cell-free supernatants of cultured erythroleukemia cells or as a cell-free extract from infected animals. Simultaneous exposure to MC 540 (15 ug/ml) and light (40 J/cm^2) reduced the virus titer by ≥4 logs regardless of the origin of the virus preparation.

mature blood cells = assay: toxicity of photosensitization to mature blood cells; assay type: cell-based, mouse; settings: photosensitization treatment
From the text: 4) The same treatment protocol was much less toxic to mature blood cells and normal pluripotent hematopoietic stem cells in the mouse.
(§5) The simultaneous exposure to MC 540 and visible light also appears to kill protozoan-infected red blood cells very rapidly, but normal pluripotent hematopoietic stem cells and mature blood cells very slowly. This differential sensitivity to MC 540-mediated photolysis may be useful in purging blood and red blood cells of cell-free protozoa and protozoan-infected cells thus making the blood supply safer for use.

[6] = system: protozoan-infected red blood cells; assay: killing of protozoan-infected red blood cells; assay type: cell-based; settings: simultaneous exposure to MC 540 and visible light
From the text: as §5

P. berghei berghei = assay: survival of mice injected with treated P. berghei-infected blood; assay type: in vivo
Protocol: as §4
In two experiments, all mice receiving P. berghei-infected blood (30% parasitemia), treated for 15-45 minutes with light and MC 540, died as did their control counterparts. However, 10% of the group receiving infected blood treated for 60 minutes with light and dye survived for the duration of the experiment (90 days).

[7] = system: virus-infected spleen cells, bone marrow cells, and cultured Friend erythroleukemia cells; assay: inactivation of Friend virus-infected / transformed cells by photosensitization; assay type: cell-based
[8] = system: normal pluripotent hematopoietic stem cells; assay: sparing of normal pluripotent hematopoietic stem cells (rescue of lethally irradiated syngeneic hosts); assay type: in vivo, mouse; settings: photosensitization treatment
Protocol: as §3

[9] = comparison dye; cited from earlier work
[10] = MC 540-mediated photosensitization
[11] = preparations photosensitized and exposed to light prior to injection

SMILES: CCCCN1C(=O)C(=CC=CC=C2Oc3c(ccc4ccccc34)N2CCCS(=O)(=O)O)C(=O)N(CCCC)C1=S [MC 540A]
- reduction of illumination time versus MC 540 [1]: about 6 fold

SMILES: CCCCN1C(=O)C(=CC=CC=C2Oc3ccccc3N2CCCS(=O)(=O)O)C(=O)N(CCCC)C1=S [MC 540]
- virus titer reduction (HSV-1) ([2]; 10 min. of illumination, limit of detection): ≥ 5 log
- virus titer reduction (HSV-1), conceivable for standard protocol ([2]; 90 min. of illumination, extrapolated): ≥ 45 log
- inactivation of Herpes simplex (in words) [2, 10]: rapidly inactivated; also recorded: extremely susceptible
- inactivation of HTLV-I infected cells (in words) (HTLV-I infected cells): rapidly inactivated
- inactivation of free and intracellular Friend virus and Friend virus-infected cells (Friend virus; MC 540-mediated photolysis): inactivates free Friend virus, intracellular Friend virus, and Friend virus-infected cells
- effect of virus preparations exposed to dye or light alone (Friend virus; dye alone or light alone): caused splenomegaly, polycythemia,and death
- hematocrits (Friend virus; [11]): remained normal
- spleen weights (Friend virus; [11]): remained normal
- survival (Friend virus; [11]): the animals survived
- LD50 ([3]; in vivo, mouse, intravenous, log probit fit): 84 mg/kg
- LD10 (mouse) ([3]; intravenous, log probit fit): 55 mg/kg
- acute systemic toxicity (in words) ([3]; mouse, in vivo): very low
- acute toxicity compared with fluorescent dyes used for angiography of the retina ([3]; mouse, in vivo, iv): not more toxic than the fluorescent dyes that are commonly used for the angiography of the retina
- selectivity ratio ([3]; mouse, in vivo, iv, read-out: LD10 relative to amount injected with mouse bone marrow graft): > 100000
- probable cause of death after high doses (necropsy) ([3]; mouse, intravenous, high doses): formation of large emboli of precipitated dye in major blood vessel
- amount injected with photosensitized marrow graft ([3]; mouse, for comparison with LD10): 0.0004 mg/kg
- HTLV-I, Reverse Transcriptase activity ([4]; MC 540, light 90 min): 37,848 cpm
- HTLV-I, Reverse Transcriptase activity ([4]; MC 540, no light): 208,548 cpm
- inactivation of HTLV-I (in words) [4, 10]: rapidly inactivated; also recorded: susceptible to MC 540-mediated photosensitization
- reduction of amount of virus sedimented by centrifugation (HTLV-I) ([4]; MC 540 and light): 5 fold
- virus probably lysed (HTLV-I) ([4]; MC 540 and light): 80%
- reduction of reverse transcriptase content of pellet (HTLV-I) ([4]; photosensitized vs untreated aliquot): more than 80%
- pellet size reduction of treated aliquot (HTLV-I) ([4]; photosensitized vs untreated aliquot, sucrose cushion): about 5 times smaller
- original virus mass no longer pelletable (HTLV-I) ([4]; two hour spin at 100,000×g): more than 80%
- survival of mice receiving 10^4 treated cells (P. yoelii YM; 30 minutes dye/light, 30% parasitemia, control 0%): One hundred
- survival of recipient population (P. yoelii) (P. yoelii YM; 60 minutes dye/light, 40%-70% parasitemia): 70%-100
- protection of recipient mice (P. yoelii) (P. yoelii YM; 90 minutes dye and light, 40%-70% parasitemia): total protection
- protection despite exceedingly high parasitemias (P. yoelii) (P. yoelii YM; all stages of development): protection by MC 540 treatment was still obtained
- protection of recipient mice (P. yoelii), shorter illumination (P. yoelii YM; shorter than 60 minutes illumination): partial protection
- course of disease in surviving mice (P. yoelii YM; some of the surviving mice, both treatments): initially showed severe symptoms of malaria (e.g. splenomegaly, anemia) but later recovered
- inactivation of Friend virus suspensions (in words) [5, 10]: rapidly inactivated
- log reduction at 15 µg/mL ([5]; light or radiation study, read-out: virus titer reduction (Friend virus)): ≥ 4
- effect on mature blood cells (in words) (mature blood cells): very slowly
- killing of protozoan-infected red blood cells (in words) [6]: very rapidly
- outcome of mice receiving treated P. berghei-infected blood (P. berghei berghei; 15-45 minutes light and MC 540, 30% parasitemia, two experiments): died
- survival of mice receiving treated P. berghei-infected blood (P. berghei berghei; 60 minutes light and dye, 90 days): 10%
- inactivation of Friend virus-transformed / infected cells (in words) [7, 10]: rapidly inactivated
- rate of inactivation of virus-infected cells versus cell-free virus ([7]; simultaneous MC 540 (15 ug/ml) and light (40 J/cm^2)): inactivated at about the same rate as cell-free virus preparations
- effect on normal pluripotent hematopoietic stem cells (in words) [8]: very slowly

SMILES: O=C1OC2(c3ccc(O)cc3Oc3cc(O)ccc32)c2ccccc21 [fluorescein]
- LD50 (mouse), for comparison [9]: 300 mg/kg
